In brackets after ≈: the same amount, converted by molar mass. Read-outs that look alike come from different tables or passages of the source.
How the values were obtained:
[1] = background and U.S. Pat. No. 4,322,410; cited from earlier work
alkaline phosphatase = conditions: requires alkaline phosphatase; cited from earlier work
[2] = Solubility of acetaminophen prodrugs in water; type: physicochemical
rat hippocampus = rat hippocampus insulted with quinolinic acid; cited from earlier work
myocytes = conditions: guinea pigs, low-flow global myocardial ischemia 30 minutes, then 60 minutes of reperfusion; cited from earlier work
[3] = Goodman and Gillman's; cited from earlier work
[4] = cited from earlier work
[5] = water, room temperature, read-out: solubility in water at room temperature
[6] = Anesthesia and Analgesia 101, 90-96, 2005
[7] = British Journal of Anaesthesia 94 (5): 642-648, 2005

For `CC(=O)Nc1ccc(OP(=O)(O)O)cc1` [4-acetamidophenyl dihydrogen phosphate], the water solubility [1] is given as 50 g per 100 mL and the “time in vitro to yield acetaminophen from the derivative” value (alkaline phosphatase) is given as “about 15 hours”.

`CC(=O)Nc1ccc(OCOP(=O)(O)O)cc1` [(4-acetamidophenoxy)methyl dihydrogen phosphate] gave a solubility [2, 5] of about 145 mg/mL and a solubility ([2]; water, solvent water, read-out: Solubility) of 145 mg/mL.

For `CC(=O)Nc1ccc(O)cc1` [Acetaminophen, N-(4-hydroxyphenyl)acetamide], the “lipid peroxidation and superoxide anion generation” value (rat hippocampus) is given as “inhibit both lipid peroxidation and superoxide anion generation”, the apoptosis in myocytes (myocytes) is given as “decrease apoptosis in myocytes” and the water solubility [1] is given as “about 1.3 g per 100 mL”. The half-life [3] was “about 2 hours”, the solubility [2, 5] was about 13 mg/mL (≈ 86 mM) and the local tolerance profile [4, 6] was 0%. The local tolerance profile [4, 7] was 52%.

In the case of `CCN(CC)CC(=O)Oc1ccc(NC(C)=O)cc1` [Propacetamol, 4-acetamidophenyl 2-(diethylamino)acetate], the local tolerance profile [4, 6] is listed as 49% and the local tolerance profile [4, 7] is listed as 90%.

For `CC(=O)Nc1ccc(OCOP(=O)(O)O)cc1` [Sodium (4-acetamidophenoxy)methyl phosphate], the solubility ([2]; solvent water, phosphate) was 160 mg/mL and the “solubility in water at room temperature” value ([2]; water, room temperature, phosphate) was about 160 mg/mL.

From patent US11021498B2 (Acorda Therapeutics, Inc., priority 2008, dated 2021)
